Measured values taken from patent EP0143109A1, “Pranoprofen gelled ointment” (priority 1983, dated 1985).

Tests used:
[1] = rat, in vivo
[2] = Percutaneous absorption and excretion (Experiment 8); conditions: after removing the unabsorbed ointment 6 hours after application

excretion route [1]: excreted mainly into urine and feces
half-life of blood level [2]: about 5 hours
SMILES: CC(C(=O)O)c1ccc2c(c1)Cc1cccnc1O2 (centres unmarked) [pranoprofen, Pranoprofen]
